Experimental data reported in ChEMBL document CHEMBL1150466, “Studies on the active conformation of NK1 antagonist CGP 49823. Part 1. Synthesis of conformationally restricted analogs” (Bioorg Med Chem Lett, 1997).

Molecular target: Substance-P receptor (Homo sapiens, UniProt P25103)
Assay: Tested for the inhibitory potency against Neurokinin 1 NK1 receptor

Sequence of Substance-P receptor (P25103 whole entry): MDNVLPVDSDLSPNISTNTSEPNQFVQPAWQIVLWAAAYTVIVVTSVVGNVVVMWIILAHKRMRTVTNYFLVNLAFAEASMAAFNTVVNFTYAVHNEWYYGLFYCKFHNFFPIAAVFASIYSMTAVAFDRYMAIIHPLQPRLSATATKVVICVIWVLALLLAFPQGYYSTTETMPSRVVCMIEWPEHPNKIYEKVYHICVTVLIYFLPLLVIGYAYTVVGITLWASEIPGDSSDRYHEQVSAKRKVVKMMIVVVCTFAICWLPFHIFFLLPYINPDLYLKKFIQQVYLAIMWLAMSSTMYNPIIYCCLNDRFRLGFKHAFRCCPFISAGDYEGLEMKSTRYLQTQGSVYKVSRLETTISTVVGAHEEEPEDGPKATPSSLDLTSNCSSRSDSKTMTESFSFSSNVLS

Compared with Cc1cc(C)cc(C(=O)N2C3C=C(c4ccccc4)C2CC(NCc2ccnc4ccccc24)C3)c1 (racemic), Cc1cc(C)cc(C(=O)N2C3CC(NCc4ccnc5ccccc45)CC2C(c2ccccc2)C3)c1 (racemic; form 1) is 23-fold lower in IC50: 1000 nM for the first, 44 nM for the second. The second is the more potent here.

Work on Cc1cc(C)cc(C(=O)N2C3CC(NCc4ccnc5ccccc45)CC2C(c2ccccc2)C3)c1 (racemic; form 2) yielded an IC50 of 640 nM.
